Calls of active or inactive are those of the source. The calls are words filed in the database; no cut-off is given here.
What was measured:
[1] = molecular target: T1, Hypoxia-inducible factor 1-alpha (Homo sapiens, UniProt Q16665); assay: Inhibition of hypoxia induced HIF1-alpha transcriptional activity in human Sk-Hep1 cells by reporter gene assay; assay type: cell-based
[2] = molecular target: T1, Hypoxia-inducible factor 1-alpha; assay: Inhibition of hypoxia induced HIF1-alpha transcriptional activity in human AGS cells by reporter gene assay; assay type: cell-based
[3] = molecular target: T1, Hypoxia-inducible factor 1-alpha; assay: Inhibition of hypoxia induced HIF1-alpha transcriptional activity in human Hep3B cells by reporter gene assay; assay type: cell-based; settings: hep 3b2
[4] = Suppression of hypoxia induced GAPDH mRNA expression in human Hep3B cells by RT-PCR; assay type: functional, cell-based; settings: Hep 3B2
[5] = Suppression of hypoxia induced VEGF expression in human Hep3B cells by RT-PCR; assay type: functional, cell-based; settings: Hep 3B2
[6] = Suppression of hypoxia induced EPO expression in human Hep3B cells by RT-PCR; assay type: functional, cell-based; settings: Hep 3B2
[7] = Suppression of hypoxia induced HIF1-alpha mRNA expression in human Hep3B cells by RT-PCR; assay type: functional, cell-based; settings: Hep 3B2

T1 sequence (Q16665 whole entry): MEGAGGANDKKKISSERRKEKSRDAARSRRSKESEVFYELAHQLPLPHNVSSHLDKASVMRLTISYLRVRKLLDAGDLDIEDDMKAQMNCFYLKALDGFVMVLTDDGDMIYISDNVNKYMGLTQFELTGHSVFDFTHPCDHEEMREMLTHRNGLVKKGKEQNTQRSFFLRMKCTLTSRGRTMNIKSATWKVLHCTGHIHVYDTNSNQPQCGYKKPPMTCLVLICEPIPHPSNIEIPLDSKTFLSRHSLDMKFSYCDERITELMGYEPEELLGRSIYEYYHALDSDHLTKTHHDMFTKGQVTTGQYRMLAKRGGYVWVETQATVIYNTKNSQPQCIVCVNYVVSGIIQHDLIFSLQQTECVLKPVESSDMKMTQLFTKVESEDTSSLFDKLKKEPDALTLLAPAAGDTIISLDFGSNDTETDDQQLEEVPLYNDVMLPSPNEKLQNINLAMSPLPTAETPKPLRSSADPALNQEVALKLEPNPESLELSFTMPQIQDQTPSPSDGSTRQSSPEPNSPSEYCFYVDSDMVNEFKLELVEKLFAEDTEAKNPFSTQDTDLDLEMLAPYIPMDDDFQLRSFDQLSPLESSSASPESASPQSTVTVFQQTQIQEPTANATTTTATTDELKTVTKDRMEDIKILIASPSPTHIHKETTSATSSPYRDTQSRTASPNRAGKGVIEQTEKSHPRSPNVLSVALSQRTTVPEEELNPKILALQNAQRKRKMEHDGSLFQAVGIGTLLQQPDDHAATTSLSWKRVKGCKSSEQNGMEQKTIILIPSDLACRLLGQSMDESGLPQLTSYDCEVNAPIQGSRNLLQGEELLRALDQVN

| IC50 [1] | IC50 [2] | IC50 [3] | Structure (SMILES) | Activity [4] | Activity [5] | Activity [6] | Activity [7] |
| --- | --- | --- | --- | --- | --- | --- | --- |
| 1030 nM | 2000 nM | 1.2 µM | COC(=O)c1ccnc(NC(=O)COc2ccc(C34CC5CC(CC(C5)C3)C4)cc2)c1 |  |  |  |  |
|  | 350 nM | 0.4 µM | O=C(COc1ccc(C23CC4CC(CC(C4)C2)C3)cc1)Nc1cccc(C(=O)O)c1 |  |  |  |  |
| 2000 nM | 800 nM | 1 µM | O=C(COc1ccc(C23CC4CC(CC(C4)C2)C3)cc1)Nc1cc(C(=O)O)ccn1 |  |  |  |  |
|  | 700 nM | 2.6 µM | COC(=O)c1cccc(NC(=O)COc2ccc(C34CC5CC(CC(C5)C3)C4)cc2)c1 |  |  |  |  |
| > 30000 nM | 5000 nM | 5.9 µM | COC(=O)c1cncc(NC(=O)COc2ccc(C34CC5CC(CC(C5)C3)C4)cc2)c1 |  |  |  |  |
| 2500 nM | 18600 nM | > 30 µM | O=C(COc1ccc(C23CC4CC(CC(C4)C2)C3)cc1)Nc1cc(C(=O)Nc2ccc(Cl)cc2)ccn1 |  |  |  |  |
| > 30000 nM | > 30000 nM | > 30 µM | O=C(COc1ccc(C23CC4CC(CC(C4)C2)C3)cc1)Nc1cc(C(=O)NCc2ccco2)ccn1 |  |  |  |  |
| > 30000 nM | > 30000 nM | > 30 µM | O=C(COc1ccc(C23CC4CC(CC(C4)C2)C3)cc1)Nc1cncc(C(=O)O)c1 |  |  |  |  |
| 900 nM | 11000 nM | 11.2 µM | O=C(COc1ccc(C23CC4CC(CC(C4)C2)C3)cc1)Nc1cc(C(=O)NCCCn2ccnc2)ccn1 |  |  |  |  |
| 4100 nM | 30000 nM | > 30 µM | O=C(COc1ccc(C23CC4CC(CC(C4)C2)C3)cc1)Nc1cncc(C(=O)NCc2ccco2)c1 |  |  |  |  |
| 11900 nM | 900 nM | > 10 µM | NC(=O)c1cncc(NC(=O)COc2ccc(C34CC5CC(CC(C5)C3)C4)cc2)c1 |  |  |  |  |
| 3400 nM | 5200 nM | 3.4 µM | O=C(COc1ccc(C23CC4CC(CC(C4)C2)C3)cc1)Nc1cc(C(=O)NCCc2ccncc2)ccn1 |  |  |  |  |
| 600 nM | 1800 nM | 3.1 µM | NC(=O)c1ccnc(NC(=O)COc2ccc(C34CC5CC(CC(C5)C3)C4)cc2)c1 | inactive | Dose-dependent effect | Dose-dependent effect | inactive |
| > 30000 nM | 1300 nM | > 30 µM | O=C(COc1ccc(C23CC4CC(CC(C4)C2)C3)cc1)Nc1cncc(C(=O)NCCc2ccncc2)c1 |  |  |  |  |
| 1900 nM | > 10000 nM | > 10 µM | O=C(COc1ccc(C23CC4CC(CC(C4)C2)C3)cc1)Nc1cncc(C(=O)NCCCn2ccnc2)c1 |  |  |  |  |

Source: ChEMBL document CHEMBL1140511, “Synthesis of (aryloxyacetylamino)-isonicotinic/nicotinic acid analogues as potent hypoxia-inducible factor (HIF)-1alpha inhibitors” (Bioorg Med Chem Lett, 2007)
